Assay results: patent US12447146B2, “Topical composition comprising tacrolimus” (MC2 Therapeutics Limited, priority 2016, dated 2025)

Experiment: Solubility of tacrolimus in oil solvents measured by HPLC
Type: physicochemical
Experimental: In this Example, the solubility of tacrolimus in various oil solvents was measured by HPLC.
Approximately 40 mg of tacrolimus was weighed and a known quantity (1-2 g) of oil was added and stirred for 5 hours at room temperature. […] If the tacrolimus appeared to be fully dissolved in under 10 g of oil the sample was then placed at 4° C. overnight. If the tacrolimus precipitated out after cold storage further oil was added and the above steps were repeated until dissolved or the 10 g of oil had been added. All samples were then centrifuged to ensure any non-dissolved tacrolimus was removed and the supernatant analysed by HPLC as described in Example 1.

Solubility (% wt) (tacrolimus in Capric caprylic trigylcerides): 0.44 % wt
Solubility (% wt) (tacrolimus in Castor oil): 1.44 % wt
Solubility (% wt) (tacrolimus in Cyclomethicone): 0.004 % wt
Solubility (% wt) (tacrolimus in Dibutyl adipate, room temperature, then 4° C. overnight, *assay within 95% of theoretical maximum, likely solubility greater than stated): 3.24* % wt
Solubility (% wt) (tacrolimus in Diethyl sebacate, room temperature, then 4° C. overnight, *assay within 95% of theoretical maximum, likely solubility greater than stated): 3.26* % wt
Solubility (% wt) (tacrolimus in Diisopropyl adipate, room temperature, then 4° C. overnight, *assay within 95% of theoretical maximum, likely solubility greater than stated): 3.08* % wt
Solubility (% wt) (tacrolimus in Dimethicone): 0.004 % wt
Solubility (% wt) (tacrolimus in Heptylmethylnonane): 0.006 % wt
Solubility (% wt) (tacrolimus in Isopropyl isostearate): 0.19 % wt
Solubility (% wt) (tacrolimus in Isopropyl myristate): 0.25 % wt
Solubility (% wt) (tacrolimus in Isopropyl palmitate): 0.26 % wt
Solubility (% wt) (tacrolimus in Mineral oil): 0.003 % wt
Structure (SMILES): C=CC[C@@H]1/C=C(\C)C[C@H](C)C[C@H](OC)[C@H]2O[C@@](O)(C(=O)C(=O)N3CCCC[C@H]3C(=O)O[C@H](/C(C)=C/[C@@H]3CC[C@@H](O)[C@H](OC)C3)[C@H](C)[C@@H](O)CC1=O)[C@H](C)C[C@@H]2OC [tacrolimus]
